Where two headings read alike, the source gives them in different places.
What was measured:
[1] = tested on: 60 cancer cell lines (NCI 60 cancer cell line series); details: cited from earlier work
[2] = tested on: 60 cancer cell lines (NCI 60 cancer cell line series); assay: NCI-DTP in vitro cancer screen, sulforhodamine B (SRB) growth inhibition, 48 hour exposure; assay type: cell-based, human
Outline: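 Potency is given as mean −log{GI50} from dose–response curves, manually binned into Low, Medium or High sensitivity. Sixty NCI-DTP tumour lines were treated 48 h with a duplicate, five-dose, ten-fold dilution series, and growth read by SRB staining of cell mass.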

For COc1cccc2c1C(=O)c1c(O)c3c(c(O)c1C2=O)C[C@@](O)(C(C)=O)C[C@@H]3O[C@H]1C[C@H](N)[C@H](O)[C@H](C)O1 [Daunorubicin], the “−Log (GI50)” value ([1]; Breast MCF7/ADRr CL5002) is given as 5.3, the “−Log (GI50)” value ([1]; Colon COLO-250 CL4010) is given as 6.8 and the “−Log (GI50)” value ([1]; NSCLC NCI-H226 CL1013) is given as 7.5. The “−Log (GI50)” value ([1]; Renal UO-31 CL9004) was 6.4, the “classification of cell line as Low(1), Medium(2), High(3) sensitivity to compound” value (“classification of cell line” for short) ([2]; Breast BT-549 CL5013) was 1 and the “classification of cell line” value ([2]; Breast MCF7(I) CL5001) was 3. For the same compound, the “classification of cell line” value ([2]; Breast MCF7/ADRr CL5002) was 1, the “classification of cell line” value ([2]; Breast MDA-MB-231 CL5005) was 1 and the “classification of cell line” value ([2]; Breast MDA-MB-435 CL5011) was 1. The “classification of cell line” value ([2]; Breast MDA-N CL5012) was 1, the “classification of cell line” value ([2]; Breast T-47D CL5014) was 2 and the “classification of cell line” value ([2]; CNS SF-268 CL12014) was 2. For the same compound, the “classification of cell line” value ([2]; CNS SF-295 CL12015) was 2, the “classification of cell line” value ([2]; CNS SNB-19 CL12002) was 2 and the “classification of cell line” value ([2]; CNS SNB-75(I) CL12005) was 2. For the same compound, the “classification of cell line” value ([2]; CNS U251(I) CL12009) was 2, the “classification of cell line” value ([2]; Colon COLO-250 CL4010) was 1 and the “classification of cell line” value ([2]; Colon HCC-2998 CL4002) was 1. The “classification of cell line” value ([2]; Colon HCT-15 CL4015) was 1, the “classification of cell line” value ([2]; Colon HCT-116 CL4003) was 2 and the “classification of cell line” value ([2]; Colon HT29(I) CL4001) was 2. For the same compound, the “classification of cell line” value ([2]; Colon SW-620 CL4009) was 2, the “classification of cell line” value ([2]; Leukemia CCRF-CEM(I) CL7003) was 3 and the “classification of cell line” value ([2]; Leukemia HL-60(I) CL7008) was 3. For the same compound, the “classification of cell line” value ([2]; Leukemia MOLT-4 CL7006) was 3, the “classification of cell line” value ([2]; Leukemia SR CL7019) was 3 and the “classification of cell line” value ([2]; Melanoma M14 CL10014) was 1. The “classification of cell line” value ([2]; Melanoma MALME-3M CL10002) was 2, the “classification of cell line” value ([2]; Melanoma SK-MEL-5 CL10007) was 2 and the “classification of cell line” value ([2]; Melanoma SK-MEL-28 CL10008) was 1. For the same compound, the “classification of cell line” value ([2]; Melanoma UACC-62 CL10020) was 2, the “classification of cell line” value ([2]; Melanoma UACC-257 CL10021) was 1 and the “classification of cell line” value ([2]; NSCLC A549/ATCC CL1004) was 2. For the same compound, the “classification of cell line” value ([2]; NSCLC EKVX CL1008) was 1, the “classification of cell line” value ([2]; NSCLC HOP-62 CL1026) was 2 and the “classification of cell line” value ([2]; NSCLC HOP-92 CL1029) was 2. For the same compound, the “sensitivity classification Low(1)/Medium(2)/High(3)” value ([2]; NSCLC NCI-H23(I) CL1001) was 2, the “classification of cell line” value ([2]; NSCLC NCI-H226 CL1013) was 2 and the “sensitivity classification Low(1)/Medium(2)/High(3)” value ([2]; NSCLC NCI-H332M CL1017) was 1. The “sensitivity classification Low(1)/Medium(2)/High(3)” value ([2]; NSCLC NCI-H460 CL1021) was 3, the “sensitivity classification Low(1)/Medium(2)/High(3)” value ([2]; NSCLC NCI-H522 CL1003) was 2 and the “sensitivity classification Low(1)/Medium(2)/High(3)” value ([2]; Ovarian IGROV1 CL6010) was 2. The “sensitivity classification Low(1)/Medium(2)/High(3)” value ([2]; Ovarian OVCAR-3 CL6001) was 1, the “sensitivity classification Low(1)/Medium(2)/High(3)” value ([2]; Ovarian OVCAR-4 CL6002) was 1 and the “sensitivity classification Low(1)/Medium(2)/High(3)” value ([2]; Ovarian OVCAR-5 CL6003) was 1. For the same compound, the “sensitivity classification Low(1)/Medium(2)/High(3)” value ([2]; Ovarian OVCAR-8 CL6005) was 2, the “sensitivity classification Low(1)/Medium(2)/High(3)” value ([2]; Prostate DU-145 CL11003) was 2 and the “sensitivity classification Low(1)/Medium(2)/High(3)” value ([2]; Prostate PC-3(I) CL11001) was 2. For the same compound, the “sensitivity classification Low(1)/Medium(2)/High(3)” value ([2]; Renal 786-0 CL9018) was 2, the “sensitivity classification Low(1)/Medium(2)/High(3)” value ([2]; Renal A498 CL9013) was 1 and the “sensitivity classification Low(1)/Medium(2)/High(3)” value ([2]; Renal ACHN CL9023) was 2. The “sensitivity classification Low(1)/Medium(2)/High(3)” value ([2]; Renal CAKI-1 CL9015) was 2, the “sensitivity classification Low(1)/Medium(2)/High(3)” value ([2]; Renal RXF-393 CL9016) was 1 and the “sensitivity classification Low(1)/Medium(2)/High(3)” value ([2]; Renal SN12C CL9008) was 2. For the same compound, the “sensitivity classification Low(1)/Medium(2)/High(3)” value ([2]; Renal TK10 CL9024) was 1 and the “sensitivity classification Low(1)/Medium(2)/High(3)” value ([2]; Renal UO-31 CL9004) was 1.
For COc1cccc2c1C(=O)c1c(O)c3c(c(O)c1C2=O)C[C@@](O)(C(=O)CO)C[C@@H]3OC1CC(N)CC(C)O1.Cl (stereo partly shown) [Deoxydoxorubicin], the “−Log (GI50)” value ([1]; CNS SF-268 CL12014) is listed as 7.3, the “−Log (GI50)” value ([1]; CNS U251(I) CL12009) is listed as 7.6 and the “−Log (GI50)” value ([1]; Colon HT29(I) CL4001) is listed as 7.5. The “−Log (GI50)” value ([1]; Melanoma UACC-62 CL10020) was 7.6, the “−Log (GI50)” value ([1]; NSCLC HOP-92 CL1029) was 7.4 and the “−Log (GI50)” value ([1]; Ovarian SK-OV-3 CL6011) was 7.3. The “−Log (GI50)” value ([1]; Prostate DU-145 CL11003) was 7.6, the “classification of cell line” value ([2]; Breast BT-549 CL5013) was 2 and the “classification of cell line” value ([2]; Breast MCF7/ADRr CL5002) was 1. The “classification of cell line” value ([2]; Breast MDA-N CL5012) was 2, the “classification of cell line” value ([2]; CNS SF-268 CL12014) was 2 and the “classification of cell line” value ([2]; CNS SF-295 CL12015) was 2. For the same compound, the “classification of cell line” value ([2]; CNS SF-539 CL12016) was 2, the “classification of cell line” value ([2]; CNS SNB-19 CL12002) was 2 and the “classification of cell line” value ([2]; CNS SNB-75(I) CL12005) was 2. For the same compound, the “classification of cell line” value ([2]; CNS U251(I) CL12009) was 2, the “classification of cell line” value ([2]; Colon COLO-250 CL4010) was 2 and the “classification of cell line” value ([2]; Colon HCT-15 CL4015) was 1. The “classification of cell line” value ([2]; Colon HT29(I) CL4001) was 2, the “classification of cell line” value ([2]; Colon KM12 CL4017) was 2 and the “classification of cell line” value ([2]; Leukemia CCRF-CEM(I) CL7003) was 2. The “classification of cell line” value ([2]; Leukemia K562(I) CL7005) was 2, the “classification of cell line” value ([2]; Leukemia RPMI-8226(I) CL7010) was 2 and the “classification of cell line” value ([2]; Leukemia SR CL7019) was 3. For the same compound, the “classification of cell line” value ([2]; Melanoma LOX IMVI CL10001) was 2, the “classification of cell line” value ([2]; Melanoma M14 CL10014) was 2 and the “classification of cell line” value ([2]; Melanoma MALME-3M CL10002) was 2. The “classification of cell line” value ([2]; Melanoma SK-MEL-28 CL10008) was 1, the “sensitivity classification Low(1)/Medium(2)/High(3)” value ([2]; NSCLC NCI-H23(I) CL1001) was 2 and the “sensitivity classification Low(1)/Medium(2)/High(3)” value ([2]; NSCLC NCI-H522 CL1003) was 2. For the same compound, the “sensitivity classification Low(1)/Medium(2)/High(3)” value ([2]; Ovarian IGROV1 CL6010) was 2, the “sensitivity classification Low(1)/Medium(2)/High(3)” value ([2]; Ovarian OVCAR-3 CL6001) was 2 and the “sensitivity classification Low(1)/Medium(2)/High(3)” value ([2]; Ovarian OVCAR-4 CL6002) was 2. For the same compound, the “sensitivity classification Low(1)/Medium(2)/High(3)” value ([2]; Ovarian OVCAR-8 CL6005) was 2, the “sensitivity classification Low(1)/Medium(2)/High(3)” value ([2]; Ovarian SK-OV-3 CL6011) was 2 and the “sensitivity classification Low(1)/Medium(2)/High(3)” value ([2]; Prostate DU-145 CL11003) was 2. For the same compound, the “sensitivity classification Low(1)/Medium(2)/High(3)” value ([2]; Prostate PC-3(I) CL11001) was 2, the “sensitivity classification Low(1)/Medium(2)/High(3)” value ([2]; Renal A498 CL9013) was 2 and the “sensitivity classification Low(1)/Medium(2)/High(3)” value ([2]; Renal SN12C CL9008) was 2. The “sensitivity classification Low(1)/Medium(2)/High(3)” value ([2]; Renal TK10 CL9024) was 1 and the “sensitivity classification Low(1)/Medium(2)/High(3)” value ([2]; Renal UO-31 CL9004) was 1.

— patent US20030129629A1, “Methods and compositions for the identification, assessment, prevention, and therapy of human cancers” (Millennium Pharmaceuticals, Inc., priority 2000, published 2003)
